Consider 18 compounds from US5773414A, “Endothelin antagonists” (Warner-Lambert Company, priority 1997, dated 1998).

Numbered stars: 1 amine (or outer) side, 2 acyl side, 3 side chain; on linkers, the order of the positions; unused ones are H or OH. Square brackets hold non-standard residues; d marks the D form. Peptide text beside a SMILES is read from it. * marks the point of attachment. X3 = Cc1c(C)c(C)c(C[C@@H](N[*:1])C(=O)[*:2])c(C)c1C; X2 = O=C([C@@H](Cc1c2ccccc2cc2ccccc12)N[*:1])[*:2]; dDip = N[C@@H](C(=O)O)C(c1ccccc1)c1ccccc1; d1Nal = N[C@H](Cc1cccc2ccccc12)C(=O)O; Fmoc = O=C(OCC1c2ccccc2-c2ccccc21)*; Cyclohexylacetyl = O=C(CC1CCCCC1)*; X1 = CC(C(=O)*)(c1ccccc1)c1ccccc1; NHcHex = C1CCC(N*)CC1; CO = O=C([*:1])[*:2]; Piv = CC(C)(C)C(=O)*; Propionyl = CCC(=O)* Where only a bound is given, the exact number is not on record here.

Test [1] deals with T1, ETA (Oryctolagus cuniculus, UniProt A5A8K3).
T1 construct: The cells used were rabbit renal artery vascular smooth muscle cells; endogenous in cells; host or cells: rabbit renal artery vascular smooth muscle cells
T1 sequence (A5A8K3 21-427): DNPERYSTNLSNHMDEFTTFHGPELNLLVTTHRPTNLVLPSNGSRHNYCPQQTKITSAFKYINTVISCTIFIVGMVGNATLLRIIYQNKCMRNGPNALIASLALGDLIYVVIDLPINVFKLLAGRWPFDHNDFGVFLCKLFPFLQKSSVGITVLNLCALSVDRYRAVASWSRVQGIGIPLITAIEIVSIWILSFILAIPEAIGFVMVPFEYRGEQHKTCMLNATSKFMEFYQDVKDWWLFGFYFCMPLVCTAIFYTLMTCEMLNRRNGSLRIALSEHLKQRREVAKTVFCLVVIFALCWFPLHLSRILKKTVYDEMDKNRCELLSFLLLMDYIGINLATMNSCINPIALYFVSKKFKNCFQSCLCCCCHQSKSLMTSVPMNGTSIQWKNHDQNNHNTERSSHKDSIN
Put plainly: Endothelin Receptor Binding Assay-A (ETA), intact cell binding of [125I]-ET-1. More on the design: species or system rabbit. The note with it: Table IIa; rabbit renal artery vascular smooth muscle cells; read-out: Binding Assay IC50 at Receptor Subtypes ETA. As for the experimental part: The cells used were rabbit renal artery vascular smooth muscle cells grown in a 48-well dish (1 cm^2) (confluent cells).
The growth media was Dulbeccos Modified Eagles/Ham's F12 which contained 10 fetal bovine serum and antibiotics (penicillin/streptomycin/fungizone).
Second, remove the assay buffers, place the dish on ice, and add 150 μL of cold assay buffer described above to each well. […] Next, place dish in a 37° C. water bath for about 2 hours and gently agitate the dish every 15 minutes. Discard the radioactive incubation mixture in the sink and wash wells 3 times with 1 mL of cold phosphate buffered saline. Last, add […] of 0.25M sodium hydroxide, agitate for 1 hour on rotator, and then transfer the sodium hydroxide extract to gamma counting tubes and count the radioactivity.

For test [2], the target named is T2, ETB (Rattus norvegicus, UniProt P21451).
T2 construct: thaw one aliquot of frozen rat cerebellar membranes; from tissue; host or cells: rat cerebellar membranes
T2 sequence (P21451 27-442): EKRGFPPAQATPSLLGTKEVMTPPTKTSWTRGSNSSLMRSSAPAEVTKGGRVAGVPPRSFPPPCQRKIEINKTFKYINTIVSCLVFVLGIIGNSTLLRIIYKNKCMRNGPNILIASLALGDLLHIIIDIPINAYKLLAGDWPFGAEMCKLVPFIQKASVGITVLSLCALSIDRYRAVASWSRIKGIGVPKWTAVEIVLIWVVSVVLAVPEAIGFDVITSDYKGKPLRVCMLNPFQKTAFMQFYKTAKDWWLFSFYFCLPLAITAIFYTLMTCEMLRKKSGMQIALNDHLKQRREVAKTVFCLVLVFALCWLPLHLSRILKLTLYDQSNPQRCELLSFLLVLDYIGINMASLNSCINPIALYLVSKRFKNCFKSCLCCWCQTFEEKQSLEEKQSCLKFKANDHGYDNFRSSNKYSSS
In words: Endothelin Receptor Binding Assay-B (ETB), [125I]-ET-1 binding in rat cerebellar membranes. The note with it: Table IIa; rat cerebellar membranes; read-out: Binding Assay IC50 at Receptor Subtypes ETB. As for the experimental part: The tissue is made up of 20 mM tris(hydroxymethyl)aminomethane hydrochloride (Trizma) buffer, 2 mM ethylenediaminetetraacetate, 100 μM phenylmethylsulfonyl fluoride.
First, thaw one aliquot of frozen rat cerebellar membranes (2 mg protein in 0.5 mL). Next, add 0.5 mL membrane aliquot to 4.5 mL cold tissue buffer, polytron at 7,500 revolutions per minute for 10 seconds. Finally, dilute tissue suspension 1/100 (0.1 mL suspension+9.9 mL tissue buffer), polytron again, and place ice.
Mix in 150 μL of tissue to each tube, vortex briefly, then tap to force all liquids to bottom (total assay volume=250 μL). Then place the tubes in a 37° C. water bath for 2 hours.
Add 2.5 mL cold water buffer (50 mM Trizma buffer) to each tube, filter, and then wash tube with additional 2.5 mL wash buffer and add to filter. Finally, wash filters with an additional 2.5 mL of cold wash buffer.
Count filters for radioactivity in gamma counter.

By IC50 is commonly meant the concentration needed to halve the response being measured. Regarding `CC[C@H](C)[C@H](NC(=O)[C@H](CC(=O)O)NC(=O)[C@H](C)NC(=O)[C@@H](Cc1ccccc1)NC(C)=O)C(=O)N[C@H](C(=O)N[C@@H](Cc1c[nH]c2ccccc12)C(=O)O)[C@@H](C)CC` [Example 59, Ac--D--Phe--Ala--Asp--Ile--Ile--Trp] (Ac-[dF]ADIIW-OH), the IC50 in test [1] came to 0.4 µM; in test [2], 0.3 µM.
For `CC[C@H](C)[C@H](NC(=O)[C@H](CCC(=O)O)NC(=O)[C@H](CC(=O)O)NC(=O)[C@H](CC(C)C)NC(=O)[C@H](NC(C)=O)C(c1ccccc1)c1ccccc1)C(=O)N[C@@H](Cc1c[nH]c2ccccc12)C(=O)O` [Example 19, Ac--D--Dip--Leu--Asp--Glu--Ile--Trp] (Ac-[dDip]LDEIW-OH), the IC50 worked out at 1 µM in test [1] and 6 µM in test [2].
The corresponding values for `CC[C@H](C)[C@H](NC(=O)[C@H](CC(=O)O)NC(=O)[C@H](CC(C)C)NC(=O)[C@H](N)Cc1c(C)c(C)c(C)c(C)c1C)C(=O)N[C@H](C(=O)N[C@@H](Cc1c[nH]c2ccccc12)C(=O)O)[C@@H](C)CC` [Example 52, D--Pmp--Leu--Asp--Ile--Ile--Trp] (H-[X3]LDIIW-OH) are 6 µM and 3.87 µM.
The corresponding values for `CC[C@H](C)[C@H](NC(=O)[C@H](Cc1ccccc1)NC(=O)[C@H](CC(C)C)NC(=O)[C@H](NC(C)=O)C(c1ccccc1)c1ccccc1)C(=O)N[C@H](C(=O)N[C@@H](Cc1c[nH]c2ccccc12)C(=O)O)[C@@H](C)CC` [Example 16, Ac--D--Dip--Leu--Phe--Ile--Ile--Trp] (Ac-[dDip]LFIIW-OH) are 1 µM and 0.008 µM.
As to `CC[C@H](C)[C@H](NC(=O)[C@H](CC(=O)O)NC(=O)[C@H](CC(C)C)NC(=O)[C@H](NC(=O)CC1CCCCC1)C(c1ccccc1)c1ccccc1)C(=O)N[C@H](C(=O)N[C@@H](Cc1c[nH]c2ccccc12)C(=O)O)[C@@H](C)CC` [Example 34, Cxl--D--Dip--Leu--Asp--Ile--Ile--Trp] (Cyclohexylacetyl-[dDip]LDIIW-OH), the figures for the IC50 in test [1] and in test [2] were 3.4 µM and 0.2 µM, respectively.
For `CC[C@H](C)[C@H](NC(=O)[C@H](CC(=O)O)NC(=O)[C@H](CC(C)C)NC(=O)[C@H](NC(=O)C(C)(C)C)C(c1ccccc1)c1ccccc1)C(=O)N[C@H](C(=O)N[C@@H](Cc1c[nH]c2ccccc12)C(=O)O)[C@@H](C)CC` [Example 38, tBu--D--Dip--Leu--Asp--Ile--Ile--Trp] (Piv-[dDip]LDIIW-OH), the values for the IC50 in test [1] and in test [2] were 10 µM and 0.5 µM, respectively.
On to `CCC(=O)N[C@@H](C(=O)N[C@@H](CC(C)C)C(=O)N[C@@H](CC(=O)O)C(=O)N[C@H](C(=O)N[C@H](C(=O)N[C@@H](Cc1c[nH]c2ccccc12)C(=O)O)[C@@H](C)CC)[C@@H](C)CC)C(c1ccccc1)c1ccccc1` [Example 31, Et--D--Dip--Leu--Asp--Ile--Ile--Trp] (Propionyl-[dDip]LDIIW-OH), for which the IC50 in test [1] was 1.8 µM; in test [2], 2 µM.
Consider `CC[C@H](C)[C@H](NC(=O)[C@H](CC(N)=O)NC(=O)[C@H](CC(C)C)NC(=O)[C@H](N)C(c1ccccc1)c1ccccc1)C(=O)N[C@H](C(=O)N[C@@H](Cc1c[nH]c2ccccc12)C(=O)O)[C@@H](C)CC` [Example 70, D--Dip--Leu--Asn--Ile--Ile--Trp] (H-[dDip]LNIIW-OH), for which the IC50 in test [1] is 6.43 µM; in test [2], 0.833 µM.
The corresponding values for `CC[C@H](C)[C@H](NC(=O)[C@H](CC(=O)O)NC(=O)[C@H](CC(C)C)NC(=O)C(C)(c1ccccc1)c1ccccc1)C(=O)N[C@H](C(=O)N[C@@H](Cc1c[nH]c2ccccc12)C(=O)O)[C@@H](C)CC` [Example 28, Bppa--Leu--Asp--Ile--Ile--Trp] (X1-LDIIW-OH) are 8 µM and 1.7 µM.
For the compound `CC[C@H](C)[C@H](NC(=O)[C@H](CC(=O)O)NC(=O)[C@H](CC(C)C)NC(=O)[C@H](NC(C)=O)C(c1ccccc1)c1ccccc1)C(=O)N[C@H](C(=O)N[C@@H](Cc1ccc(O)cc1)C(=O)O)[C@@H](C)CC` [Example 88, Ac--D--Dip--Leu--Asp--Ile--Ile--Tyr] (Ac-[dDip]LDIIY-OH), the IC50 is 3.7 µM in test [1] and 6.3 µM in test [2].
`CC[C@H](C)[C@H](NC(=O)[C@H](CC(=O)O)NC(=O)[C@H](CC(C)C)NC(=O)[C@H](NC(=O)NC1CCCCC1)C(c1ccccc1)c1ccccc1)C(=O)N[C@H](C(=O)N[C@@H](Cc1c[nH]c2ccccc12)C(=O)O)[C@@H](C)CC` [Example 36, Cxl(U)--D--Dip--Leu--Asp--Ile--Ile--Trp] ({NHcHex-CO}-[dDip]LDIIW-OH): the IC50 in test [1] stood at 0.82 µM; in test [2], 0.05 µM.
For `CC[C@H](C)[C@H](NC(=O)[C@H](CC(=O)O)NC(=O)[C@H](CC(C)C)NC(=O)[C@H](NC(=O)NC)C(c1ccccc1)c1ccccc1)C(=O)N[C@H](C(=O)N[C@@H](Cc1c[nH]c2ccccc12)C(=O)O)[C@@H](C)CC` [Example 37, Me(U) --D--Dip--Leu--Asp--Ile--Ile--Trp] ({NHMe-CO}-[dDip]LDIIW-OH), in that order: 1 µM and 1.5 µM.
For `CC[C@H](C)[C@H](NC(=O)[C@@H]1CCCN1C(=O)[C@H](CC(N)=O)NC(=O)[C@H](CC(C)C)NC(=O)[C@@H](Cc1ccccc1)NC(C)=O)C(=O)N[C@@H](Cc1c[nH]c2ccccc12)C(=O)O` [Example 90, Ac--D--Phe--Leu--Asn--Pro--Ile--Trp] (Ac-[dF]LNPIW-OH), in that order: 1.98 µM and 2.8 µM.
Turning to `CC[C@H](C)[C@H](NC(=O)[C@H](CC(=O)O)NC(=O)[C@H](CC(C)C)NC(=O)[C@H](NC(=O)OCC1c2ccccc2-c2ccccc21)C(c1ccccc1)c1ccccc1)C(=O)N[C@H](C(=O)N[C@@H](Cc1c[nH]c2ccccc12)C(=O)O)[C@@H](C)CC` [Example 30, Fmoc--D--Dip--Leu--Asp--Ile--Ile--Trp] (Fmoc-[dDip]LDIIW-OH), the IC50 in test [1] and in test [2] was 6 µM in each case.
Turning to `CC[C@H](C)[C@H](NC(=O)[C@H](CC(=O)O)NC(=O)[C@H](CC(C)C)NC(=O)[C@H](N)Cc1c2ccccc2cc2ccccc12)C(=O)N[C@H](C(=O)N[C@@H](Cc1c[nH]c2ccccc12)C(=O)O)[C@@H](C)CC` [Example 54, D--Ana--Leu--Asp--Ile--Ile--Trp] (H-[X2]LDIIW-OH), the figures for the IC50 in test [1] and in test [2] were 5.86 µM and 1.21 µM, respectively.
Take `CC[C@H](C)[C@H](NC(=O)[C@H](CC(=O)O)NC(=O)[C@H](CC(C)C)NC(=O)[C@@H](Cc1ccccc1)NC(C)=O)C(=O)N[C@H](C(=O)N[C@@H](Cc1ccc(O)cc1)C(=O)O)[C@@H](C)CC` [Example 89, Ac--D--Phe--Leu--Asp--Ile--Ile--Tyr] (Ac-[dF]LDIIY-OH): the IC50 in test [1] was above 10 µM; in test [2], 0.22 µM.
The corresponding values for `CC[C@H](C)[C@H](NC(=O)[C@H](C)NC(=O)[C@H](CC(=O)O)NC(=O)[C@H](CC(C)C)NC(=O)[C@@H](Cc1ccccc1)NC(C)=O)C(=O)N[C@@H](Cc1c[nH]c2ccccc12)C(=O)O` [Example 73, Ac--D--Phe--Leu--Asp--Ala--Ile--Trp] (Ac-[dF]LDAIW-OH) are 3.5 µM and 0.33 µM.
As for `CC[C@H](C)[C@H](NC(=O)[C@H](CC(=O)O)NC(=O)[C@H](CC(C)C)NC(=O)[C@@H](Cc1cccc2ccccc12)NC(C)=O)C(=O)N[C@H](C(=O)N[C@@H](Cc1c[nH]c2ccccc12)C(=O)O)[C@@H](C)CC` [Example 45, Ac-1-D--Nal--Leu--Asp--Ile--Ile--Trp] (Ac-[d1Nal]LDIIW-OH), the IC50 stood at 0.3 µM in test [1] and 0.45 µM in test [2].
